Laboratory results as given in US10981932B2, “Macrocyclic indole derivatives” (Bayer Aktiengesellschaft, priority 2016, dated 2021).
Like-named read-outs stand apart in the source and are kept apart here.

What was measured:
[1] = 11-membered ring
SUDHL10 [2] = tested on: SUDHL10
SUDHL10 [3] = assay: Anti-proliferative effect (CellTiter-Glo, 72 h), SUDHL10; format: cell-based; conditions: SUDHL10 cells, antiproliferation, 72 h incubation, median, read-out: Antiproli SUDHL10 [M] (median)
Outline: (§1)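 Endpoint: CellTiter-Glo luminescence, 10 min after reagent addition. Treatment ran 72 h at 37 °C, humidified. Growth was referenced to a separately plated day 0 plate.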

SUDHL5 [4] = assay: Anti-proliferative effect (CellTiter-Glo, 72 h), SUDHL5; format: cell-based; conditions: SUDHL5 cells, antiproliferation, median, read-out: Antiproli SUDHL5 [M] (median)
Outline: as §1

SUDHL10 [5] = assay: Induction of caspase-3/7 activity (Caspase-Glo 3/7), SUDHL10; format: cell-based; conditions: caspase-3/7 induction, SUDHL10 cells, 3 h treatment; median
Outline: (§2)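 A 3 h, 37 °C compound incubation precedes the Caspase-Glo 3/7 read. After subtracting medium-only signal, EC50s are fitted against the reference compound's maximal caspase induction.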

MV-4-11 = assay: Anti-proliferative effect (CellTiter-Glo, 72 h), MV-4-11; format: cell-based; conditions: MV-4-11 cells, median, read-out: IC50 antiproliferation assay MV-4-11 [M] (median)
Outline: as §1

A2780 = assay: Anti-proliferative effect (CellTiter-Glo, 72 h), A2780; format: cell-based; conditions: A2780 cells, median, read-out: IC50 antiproliferation assay A2780 [M] (median)
Outline: as §1

MCL-1 = MCL-1 (Homo sapiens, UniProt Q07820); assay: Protein-protein interaction assay MCL-1/Noxa BH3 peptide (MCL-1 assay), TR-FRET; format: binding; conditions: MBP-MCL-1 / Noxa BH3-derived peptide, median
Outline: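 Steady-state competition, MCL-1/Noxa BH3, TR-FRET readout; 1 nM MBP-MCL-1, 11-point dose series 0.1 nM–20 μM; overnight 4 °C equilibration; 4-parameter IC50.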

SUDHL5 [6] = tested on: SUDHL5
SUDHL5 [7] = assay: Induction of caspase-3/7 activity (Caspase-Glo 3/7), SUDHL5; format: cell-based; conditions: caspase-3/7 induction, SUDHL5 cells, 3 h treatment; median
Outline: as §2

OPM2 = assay: Anti-proliferative effect (CellTiter-Glo, 72 h), OPM2; format: cell-based; conditions: OPM2 cells, median, read-out: IC50 antiproliferation assay OPM2 [M] (median)
Outline: as §1

Sequence of MCL-1 (Q07820 whole entry): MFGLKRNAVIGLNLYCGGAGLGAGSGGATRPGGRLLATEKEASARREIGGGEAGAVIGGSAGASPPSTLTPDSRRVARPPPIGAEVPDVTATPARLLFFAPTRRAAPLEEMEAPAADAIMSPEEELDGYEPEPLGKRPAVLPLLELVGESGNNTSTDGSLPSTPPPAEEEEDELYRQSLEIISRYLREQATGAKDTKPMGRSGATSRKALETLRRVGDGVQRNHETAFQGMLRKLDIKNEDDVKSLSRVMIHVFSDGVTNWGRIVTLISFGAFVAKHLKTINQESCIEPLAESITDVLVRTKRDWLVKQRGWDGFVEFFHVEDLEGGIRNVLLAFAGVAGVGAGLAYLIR

| IC50 (SUDHL10 [2]) [µM] | EC50 (SUDHL10 [5]) [µM] | IC50 (MV-4-11) [M] | IC50 (A2780) [M] | IC50 (MCL-1) [µM] | IC50 (SUDHL5 [6]) [µM] | EC50 (SUDHL5 [7]) [µM] | Molecule | other results |
| --- | --- | --- | --- | --- | --- | --- | --- | --- |
| – | – | – | – | – | – | – | CCOC(=O)c1[nH]c2c(-c3c(CC)nn(C)c3CO)c(C)ccc2c1CCCO[Si](C)(C)C(C)(C)C | ring closure, isolated yield ([1]; the molecule shown is the open-chain precursor, crosslinker bond, (2Z)-1,4-dichlorobut-2-ene/NaH, DMF, 65.1 mM): 68.9% |
| – | – | – | – | – | – | – | CCOC(=O)c1[nH]c2c(-c3c(CO)nn(C)c3CC)cccc2c1CCCO[Si](C)(C)C(C)(C)C | ring closure, isolated yield ([1]; the molecule shown is the open-chain precursor, crosslinker bond, (2Z)-1,4-dichlorobut-2-ene/NaH, DMF, 65.6 mM): 75.3% |
| – | – | – | – | – | – | – | CCOC(=O)c1[nH]c2c(-c3c(CO)nn(CCN4CCOCC4)c3C)c(C)ccc2c1CCCO[Si](C)(C)C(C)(C)C | ring closure, isolated yield ([1]; the molecule shown is the open-chain precursor, crosslinker bond, (2Z)-1,4-dichlorobut-2-ene/NaH, DMF, 65.7 mM): 48.3% |
| 2.58 | 2.78 | 4.74e-06 | 1.39e-05 | 0.00163 | 1.85 | 1.45 | CCc1c2c(nn1C)COCCCCn1c(C(=O)O)c(CCCOc3cccc4cc(F)ccc34)c3cccc-2c31 (racemic) [Example 281, (rac)-3-ethyl-7-{3-[(6-fluoronaphthalen-1-yl)oxy]propyl}-2-methyl-2,10,11,12,13,15-hexahydropyrazolo[4′,3′:9,10][1,6]oxazacycloundecino[8,7,6-hi]indole-8-carboxylic Acid] | IC50 (SUDHL10 [3]): 6.99e-06 M; IC50 (SUDHL5 [4]; 72 h incubation): 2.48e-06 M |
| 27.1 | > 33 | 2e-05 | 1.05e-05 | 0.0999 | 30.9 | > 33 | CCc1nn(C)c2c1-c1cccc3c(CCCOc4cccc5cc(C(F)(F)F)ccc45)c(C(=O)O)n(c13)CCCCOC2 (racemic) [Example 313, (rac)-12-ethyl-10-methyl-1-(3-((6-(trifluoromethyl)naphthalen-1-yl)oxy)propyl)-4,5,6,7,9,10-hexahydropyrazolo[4′,3′:9,10][1,6]oxaazacycloundecino[8,7,6-hi]indole-2-carboxylic Acid] | IC50 (SUDHL5 [4]; 72 h): 7.48e-06 M |
| 13.9 | 14 | 2.02e-06 | 8.42e-06 | 0.0108 | 6.3 | 6.2 | CN1CCCn2c(C(=O)O)c(CCCOc3cccc4ccccc34)c3cccc(c32)-c2c(CCN3CCOCC3)nn(C)c2C1 (single isomer, unassigned; enantiomer 1) [Example 125, 7,9-dimethyl-11-[2-(morpholin-4-yl)ethyl]-1-[3-(naphthalen-1-yloxy)propyl]-4,5,6,7,8,9-hexahydropyrazolo[3′,4′:7,8][1,5]diazecino[9,10,1-hi]indole-2-carboxylic Acid (Enantiomer 1)] | IC50 (OPM2): 1.15e-05 M; IC50 (SUDHL10 [3]): 7.66e-06 M; IC50 (SUDHL5 [4]; 72 h incubation): 2.53e-06 M |
| – | – | – | – | – | – | – | (rac)-(E/Z)-ethyl-1,3-dimethyl-7-[3-(naphthalen-1-yloxy)propyl]-1,10,13,15-tetrahydropyrazolo[4′,3′:9,10][1,6]oxazacycloundecino[8,7,6-hi]indole-8-carboxylate | ring closure, isolated yield ([1]; rcm bond, Grubbs II (10 mol%), DCM, 77.0 mM): 57% |
| – | – | – | – | – | – | – | (rac)-(E/Z)-ethyl-2,3-dimethyl-7-[3-(naphthalen-1-yloxy)propyl]-2,10,13,15-tetrahydropyrazolo[4′,3′:9,10][1,6]oxazacycloundecino[8,7,6-hi]indole-8-carboxylate | ring closure, isolated yield ([1]; rcm bond, Grubbs II (10 mol%), DCM, 77.8 mM): 15% |
